Results reported in patent US6713265B1 (Synaptic Pharmaceutical Corporation, priority 1999, dated 2004).

Test system: NPY-induced feeding behavior
Test: NPY-induced food intake in satiated rats
Assay type: in vivo, rat
Conditions: compound 30 mg/kg i.p. then 300 pmole NPY i.c.v., 4 hours, mean ± S.E.M.
Protocol: For these determinations food intake may be measured in normal satiated rats after intracerebroventricular application (i.c.v.) of NPY in the presence or absence of the test compound. Male Sprague Dawley rats (Ciba-Geigy AG, Sisseln, Switzerland) weighing between 180 g and 220 g are used for all experiments. The rats are individually housed in stainless steel cages and maintained on an 11:13 h light-dark cycle (lights off at 18:00 h) at a controlled temperature of 21-23° C. at all times. Water and food (NAFAG lab chow pellets NAFAG, Gossau, Switzerland) are available ad libidum.
Rats under pentobarbital anesthesia are stereotaxically implanted with a stainless steel guide cannula targeted at the right lateral ventricle. Stereotaxic coordinates, with the incisor bar set −2.0 mm below interaural line, are: −0.8 mm anterior and +1.3 mm lateral to bregma. The guide cannula is placed on the dura. Injection cannulas extend the guide cannulas −3.8 mm ventrally to the skull surface. Animals are allowed at least 4 days of recovery postoperatively before being used in the experiments. Cannula placement is checked postoperatively by testing all rats for their drinking response to a 50. ng intracerebroventricular (i.c.v.) injection of angiotensin II. Only rats which drink at least 2.5 ml of water within 30 min. after angiotensin II injection are used in the feeding studies.
All injections are made in the morning 2 hours after light onset. Peptides are injected in artificial cerebrospinal fluid (ACSF) in a volume of 5 μl. ACSF contains: NaCl 124 mM, KCl 3.75 mM, CaCl2 2.5 mM, MgSO4 2.0 mM, KH2PO4 0.22 mM, NaHCO3 26 mM and glucose 10 mM. Porcine-NPY (p-NPY) are dissolved in artificial cerebrospinal fluid (ACS). For i.c.v. injection the test compounds are preferably dissolved in DMSO/water (10%, v/v). The vehicle used for intraperitoneal (i.p.), subcutaneous (s.c.) or oral (p.o.) delivery of compounds is preferably water, physiological saline or DMSO/water (10% v/v), or cremophor/water (20% v/v), respectively.
Animals which are treated with both test compounds and porcine-NPY are treated first with the test compound.
Food intake may be measured by placing preweighed pellets into the cages at the time of NPY injection. Pellets are then removed from the cage subsequently at each selected time point and replaced with a new set of preweighed pellets. The food intake of animals treated with test compound may be calculated as a percentage of the food intake of control animals i.e., animals treated with vehicle. Alternatively, food intake for each group of animals subjected to a particular experimental condition may be expressed as the mean±S.E.M. Statistical analysis is performed by analysis of variance using the Student-Newman-Keuls test.
Food intake is reported as the mean±S.E.M. intake for a group of animals.

Cl.O=S(=O)(NC[C@H]1CC[C@H](CNCC2CCc3ccccc3C2)CC1)c1cccc2ccccc12 (mixture of isomers) [Compound 19] was tested, and the “Food intake, NPY + compound” value was 1.5 ± 0.6 g.
